From PubChem BioAssay AID489035 (Sanford-Burnham Center for Chemical Genomics, 2010)
Calls of active or inactive are those of the source. The rule behind the calls is not given here.

test system: Jurkat NF-kB reporter, TCR-induced, luciferase luminescence; test: T-cell NF-kB luciferase reporter inhibition – Jurkat cells, luminescence, dose response (AID 489035)

Row | Structure (SMILES) | IC50
1 | Cc1noc(C)c1COc1cccc(C(=O)OCC(=O)N2CC(=O)Nc3ccccc32)c1 | > 80 µM (inactive)
2 | CCOc1ccccc1NC(=O)Cn1nnc(C(=O)NCc2ccco2)c1N | > 80 µM (inactive)
3 | O=C1c2c(O)ccc(O)c2C(=O)c2c(NCCNCCO)ccc(NCCNCCO)c21 | 2.23 µM
4 | CCC(C)C(=O)N[C@@H](c1ccccc1)[C@@H](O)C(=O)O[C@H]1C[C@@]2(O)[C@@H](OC(=O)c3ccccc3)C3[C@](C)(C(=O)[C@H](OC(C)=O)C(=C1C)C2(C)C)[C@@H](O)C[C@H]1OC[C@@]31OC(C)=O (some centres undefined) | > 80 µM (inactive)
5 | C[C@]12CCC3C(CCC4=CC(O)CC[C@@]43/C=N/O)C1(O)CCC2C1=CC(=O)OC1 (some centres undefined) | 47.8 µM (inactive)
6 | O=C(Nc1ccc(S(=O)(=O)Nc2ccccc2)cc1)c1ccc(CN2CCOCC2)cc1 | 29.5 µM (inactive)
7 | CCC(O)C1CCN(C(=O)c2cc(COc3ccc4ncccc4c3)on2)CC1 (centres undefined) | 0.69 µM
8 | Cc1cc(C(C)(C)C)cc(C)c1C[n+]1ccc2ccccc2c1 | 58.9 µM (inactive)
9 | Cc1ccc2c(c1)COc1c3ccc(C(=O)O)cc3nn1-2 | > 80 µM (inactive)
10 | Cc1ccc(-n2ncc3c(N4CCN(c5ccccc5)CC4)ncnc32)c(C)c1 | 4.9 µM
11 | CCOc1ccc(Nc2cc(C)nc(-n3nc(C)cc3C)n2)cc1 | > 80 µM (inactive)
12 | COc1ccc(CNS(=O)(=O)c2cc(-c3cc(C)no3)ccc2C(C)C)cc1 | 64.6 µM (inactive)
13 | COc1ccc(-n2nnnc2-c2ccccc2)cc1 | > 80 µM (inactive)
14 | O=C(Sc1cccc2cccnc12)c1ccccc1Br | 3.21 µM
15 | CCOCCOC(=O)c1[nH]c2c(c1C)C(=O)CC(c1ccccc1)C2 (centres undefined) | > 80 µM (inactive)
16 | CC(=O)N(C)C1=C(N2CCOCC2)C(=O)c2ccccc2C1=O | 9.87 µM
17 | CC(=O)c1ccc(Oc2cc(C)nc(-n3nc(C)cc3C)n2)cc1 | 13.5 µM
18 | COc1ccc2c(c1)C(=O)N1[C@H]3c4cc(Br)ccc4OC[C@@H]3[C@H](c3ccccc3)[C@]1(C)C(=O)N2 | > 80 µM (inactive)
19 | CCOc1cc(C(=O)N/N=C/C(Br)=C/c2ccccc2)cc(OCC)c1OCC | > 80 µM (inactive)
20 | Cc1cc(C)nc(SCC(=O)Nc2ccnc3ccccc23)n1 | > 80 µM (inactive)
21 | O=C(COc1ccccc1-c1ccccc1)N/N=C/c1cccc2ccccc12 | < 0.16 µM
22 | CCOc1ccccc1C1CC(=O)Nc2cc3c(cc21)OCO3 (centres undefined) | 67.1 µM (inactive)
23 | Cc1cc(-c2ccc(C(C)C)c(S(=O)(=O)N3CCN(c4ccccc4)CC3)c2)on1 | > 80 µM (inactive)
24 | O=C1CC(c2cc(F)ccc2F)c2cc3c(cc2N1)CCC3 (centres undefined) | > 80 µM (inactive)

Row | Structure (SMILES) | IC50
25 | CCN1/C(=C/c2ccc3cc(C)ccc3[n+]2CC)Sc2ccc3sccc3c21 | 3.1 µM
26 | Cc1cccc(N2CCN(C(=O)c3c(-c4ccccc4Cl)noc3C)CC2)c1C | 78.6 µM (inactive)
27 | COc1cc(C2C(C#N)=C(N)Oc3cc(N(C)C)ccc32)cc2c1OCO2 (centres undefined) | > 80 µM (inactive)
28 | C[C@@H]1O[C@@H](O[C@H]2C[C@@H](O)[C@]3(CO)[C@@H]4C(CC[C@]3(O)C2)[C@@]2(O)CC[C@H](C3COC(=O)C3)[C@@]2(C)C[C@H]4O)[C@H](O)[C@H](O)[C@H]1O (some centres undefined) | 23.3 µM (inactive)
29 | CCCCCCCn1c2c(c(=N)c3ccccc31)CCC2 | 12.3 µM
30 | C=C(C)COc1ccc(-c2n[nH]c(C)c2-c2ccc(OC)c(OC)c2)c(O)c1 | 21.1 µM (inactive)
31 | C/C=C(\C)C(=O)N[C@@H](c1ccccc1)[C@@H](O)C(=O)O[C@H]1C[C@@]2(O)[C@@H](OC(=O)c3ccccc3)C3[C@](C)(C(=O)[C@H](O)C(=C1C)C2(C)C)[C@@H](O)C[C@H]1OC[C@@]31OC(C)=O (some centres undefined) | > 80 µM (inactive)
32 | O=[N+]([O-])c1ccc(-c2nc(C(Cl)Cl)c3ccccc3n2)cc1 | 1.12 µM
33 | C=C(C)[C@@]12OC3(c4ccccc4)O[C@@H]1C1[C@@H]4O[C@]4(CO)[C@@H](O)[C@]4(O)C(=O)C(C)=C[C@H]4[C@@]1(O3)[C@H](C)[C@H]2OC(=O)/C=C/C=C/c1ccccc1 (some centres undefined) | 27.9 µM (inactive)
34 | CCOC(=O)c1[nH]c(C)c(C(=O)OCC(=O)NC(C)c2ccc(F)cc2)c1C (centres undefined) | > 80 µM (inactive)
35 | CCN(CC)c1ccc2nc3ccc(N)cc3[n+](-c3ccccc3)c2c1 | 2.62 µM
36 | COc1ccc(C(=O)/C(C#N)=N/Nc2ccc([N+](=O)[O-])cc2)cc1 | 9.52 µM
37 | Cc1ccc(C)c(NS(=O)(=O)c2ccc(-c3cnc(C4CC4)o3)cc2)c1 | 13.8 µM
38 | Cc1ccc(COC(=O)c2cc([N+](=O)[O-])ccc2N2CCOCC2)cc1 | 49 µM (inactive)
39 | O=C(Nc1ccc(CSc2ccccc2)cc1)c1ccc(CN2CCOCC2)cc1 | > 80 µM (inactive)
40 | O=C(Nc1nc(-c2ccccc2)cs1)c1ccc(N2CCOCC2)c([N+](=O)[O-])c1 | > 80 µM (inactive)
41 | CC(=O)O[C@H]1C(=O)[C@]2(C)[C@H]([C@H](OC(=O)c3ccccc3)[C@]3(O)C[C@H](OC(=O)[C@H](O)[C@@H](NC(=O)c4ccccc4)c4ccccc4)C(C)=C1C3(C)C)[C@]1(OC(C)=O)CO[C@@H]1C[C@@H]2O | 0.51 µM
42 | Cc1ccc(C)c(N=Nc2ccc(O)c3ncccc23)c1 | 28.3 µM (inactive)
43 | Cc1ccc(C(=O)O/N=C(\N)c2ccccn2)c(Cl)c1 | 1.11 µM
44 | O=S(=O)(Nc1ccc(F)cc1Cl)c1ccc(-c2cnc(C3CC3)o2)cc1 | > 80 µM (inactive)
45 | Cc1nn(-c2ccccc2Cl)c(Cl)c1/C=N/Nc1nc2ccccc2s1 | < 0.16 µM
46 | O=S1(=O)C=C(Sc2nc3ccccc3s2)c2ccccc21 | 0.26 µM
47 | COC(=O)c1ccccc1NC(=O)Cn1c(-c2nonc2N)nc2ccccc21 | 43.6 µM (inactive)
48 | CCc1ccc(N2C(=O)C(Cl)=C(Nc3ccc(C(=O)N4CCCC4)cc3)C2=O)cc1 | 6.33 µM

Row | Structure (SMILES) | IC50
49 | O=C(NCCOc1ccccc1)c1cc([N+](=O)[O-])ccc1N1CCOCC1 | > 80 µM (inactive)
50 | COc1cccc(N2CCN(c3ncnc4c3cnn4-c3ccc(C)cc3C)CC2)c1 | 11 µM
51 | COC(=O)c1[nH]c2ccc(F)cc2c1NS(=O)(=O)c1ccc(OC)cc1 | > 80 µM (inactive)
52 | COc1ccc(NC(=O)C(=O)NCC2CCCN2S(=O)(=O)c2ccc(C)cc2)cc1 (centres undefined) | > 80 µM (inactive)
53 | CCC(=O)NC(c1ccc(C)cc1)c1ccc2cccnc2c1O (centres undefined) | 11.6 µM
54 | CC[C@@]1(O)C(=O)OCc2c1cc1n(c2=O)Cc2cc3c(CN(C)C)c(O)ccc3nc2-1 | 0.2 µM
55 | CCOC(=O)C1CCN(S(=O)(=O)c2c(Cl)ccc3nonc23)CC1 | 1.88 µM
56 | Cn1ncnc2c(=O)n(C)c(=O)nc1-2 | 0.51 µM
57 | Cc1ccc(-c2cc(-c3ccc(C)cc3)[n+](-c3ccccc3)c(-c3ccc(C)cc3)c2)cc1 | 6.13 µM
58 | CC(C)(C)c1ccc(C(=O)Nc2ccc(Oc3cccnc3)nc2)cc1 | > 80 µM (inactive)
59 | Cc1cc(C)cc(NS(=O)(=O)c2ccc(-c3cnc(C4CC4)o3)cc2)c1 | 20.5 µM (inactive)
60 | Cc1cc(-c2ccc(S(=O)(=O)N(C)c3ccc(C)c(C)c3)s2)on1 | > 80 µM (inactive)
61 | CCOc1ccc(-c2[nH]ncc2-c2ccc(OC)c(OC)c2)c(O)c1 | 28.4 µM (inactive)
62 | COC(=O)c1c(NC(=O)c2ccc([N+](=O)[O-])o2)sc2c1CCN(C(C)C)C2 | 6.76 µM
63 | Clc1ccc2c(c1)C(C1=NCCN1)c1ccccc1CS2 (centres undefined) | 58.5 µM (inactive)
64 | O=c1oc2ccccc2cc1-c1cn(-c2ccccc2)c(=S)[nH]1 | 13 µM
65 | COc1ccc(-c2ccc3oc(-c4ccc(OC)cc4)c(C#CCO)c3c2)cc1 | > 80 µM (inactive)
66 | O=C(Nc1ccc(S(=O)(=O)N2CCCCC2)cc1)c1ccc(CN2CCOCC2)cc1 | 16.6 µM
67 | Cc1cccc(N2CCN(C(=O)c3ccc4[nH]c(C)c(C)c4c3)CC2)c1C | > 80 µM (inactive)
68 | COc1cc(Cn2c(-c3nonc3N)nc3ccccc32)ccc1C | > 80 µM (inactive)
69 | O=C(NCc1ccc2c(c1)OCO2)c1cc([N+](=O)[O-])ccc1N1CCOCC1 | > 80 µM (inactive)
70 | COc1ccc(CC(=O)Nc2nc(-c3ccc(F)c(F)c3)cs2)cc1OC | 22.4 µM (inactive)
71 | COc1ccc(C(NC(=O)C(C)C)c2ccc3cccnc3c2O)cc1 (centres undefined) | 5.96 µM
72 | Cc1ccc2c(c1)sc(-c1ccc(N(C)C)cc1)[n+]2C | > 80 µM (inactive)

Row | Structure (SMILES) | IC50
73 | CCCCC(=O)NC(c1ccc(N(C)C)cc1)c1ccc2cccnc2c1O (centres undefined) | > 80 µM (inactive)
74 | O=C(c1ccc(CS(=O)c2ccccc2Cl)o1)N1CCN(c2ccccn2)CC1 (centres undefined) | 68.2 µM (inactive)
75 | Cc1nnc(N/N=C/c2ccccn2)[nH]c1=O | 1.18 µM
76 | O[C@@H]1[C@@H](O)C=C2CCN3Cc4cc5c(cc4[C@H]1C23)OCO5 (some centres undefined) | 0.84 µM
77 | C/C(=N\NC(=O)c1cc(C)nc2ccccc12)c1ccccn1 | > 80 µM (inactive)
78 | COc1cc2c(cc1O)CC[C@@H]1[C@@H]2CC[C@]2(C)[C@@H](O)CC[C@@H]12 | > 80 µM (inactive)
79 | O=C(NN=Cc1c(O)ccc2ccccc12)c1ccc2c(c1)OCO2 | 26.6 µM (inactive)
80 | Cc1ccc(C(=O)O/N=C(\N)c2ccccn2)c(C)c1 | 0.42 µM
81 | CCn1ncc(C2=NOC(C(=O)NCc3ccc(Cl)cc3)C2)c1C (centres undefined) | > 80 µM (inactive)
82 | COc1ccc(C2=NOC(C(=O)NCc3ccc(F)cc3)C2)cc1OC (centres undefined) | > 80 µM (inactive)
83 | COc1ccc(C)cc1NS(=O)(=O)c1ccc(-c2cnc(C3CC3)o2)cc1 | > 80 µM (inactive)
84 | C=C1C(=O)O[C@H]2C[C@@H](C)[C@@H]3C=CC(=O)[C@@]3(C)C[C@H]12 | 1.26 µM
85 | CC#CC(=O)N1CCC(n2nccc2NC(=O)c2ccc3c(c2)OCO3)CC1 | > 80 µM (inactive)
86 | COc1ccc(N(C(=O)c2ccccc2C)S(=O)(=O)c2cccs2)cc1 | 20 µM (inactive)
87 | COC(=O)c1ccccc1NC(=O)CSc1nc(-c2ccco2)cc(C(F)(F)F)n1 | 72.2 µM (inactive)
88 | Cc1ccc(S(=O)(=O)Cc2ccc(C(=O)N3CCN(c4cccc(C)c4C)CC3)o2)cc1 | 15.8 µM
89 | C/C(=N\NC(=O)c1ccc(Cl)c(Cl)c1)c1ccccn1 | 1.3 µM
90 | CC(Nc1ncnc2ccccc12)c1ccccc1 (centres undefined) | > 80 µM (inactive)
91 | O=S1(=O)Nc2c(ccc3cccnc23)-c2ccccc21 | 2.17 µM
92 | COc1cc(C2=NOC(C(=O)NCc3ccc(F)cc3)C2)cc(OC)c1OC (centres undefined) | 6.16 µM
93 | COc1cccc(-c2cc(C(=O)Nc3cc(C)n(Cc4ccc(Cl)cc4)n3)no2)c1 | > 80 µM (inactive)
94 | CS(=O)(=O)c1ccc(Sc2nc3ccccc3s2)c([N+](=O)[O-])c1 | 0.89 µM
